The values that follow come from patent US20240197890A1, “FLAVONE DERIVATIVES AND USES IN TARGETING CK2-MEDIATED DISEASES AND CONDITIONS” (Salk Institute for Biological Studies, priority 2020, published 2024).

Experiment [1] has as its target T1, recombinant human CK2a1 kinase (Homo sapiens, UniProt P68400).
T1 construct: purchased Thermo Fisher PV3248
The experiment is described as follows: In vitro kinase assay (PhosphoSens, Cysteine-Sox sensor peptide). It is filed as biochemical. To be noted: FIG. 4A. On the procedure:
Kinase assays. In vitro kinase assays were run using the Cysteine-Sox-Kinase Sensor AQT0696, 96 assay Kit (AssayQuant Tech, CSKS-AQT0696). […] Slopes corresponding to linear reaction rates were obtained for each compound concentration (RFU/sec), normalized to DMSO controls, and IC50 values were determined by applying the dose response non-linear regression model in GraphPad Prism. For kinase assays using postmortem brain tissue lysates, brain tissues were homogenized at 4° C. using a Bullet Blender (Next Advance) in kinase buffer (20 mM HEPES 7.4 pH, 150 mM NaCl, 1% Triton-X, 1 mM EDTA, 1 mM EGTA plus Halt Protease and Phosphase Inhibitor Cocktail). After sonication and clarification, protein concentration was measured by BCA Assay. CK2 activity was measured as described above, except lysates were used instead of purified kinase at 2 μL/well (˜0.3-0.4 ug protein per reaction). […] Patient lysates were individually preincubated with 20 μM CX4945 for 30 min at room temperature before initiating kinase kinetic assays.

Experiment [2] has as its system microglial phagocytosis of pHrodo E. coli beads. Kind of experiment: Microglial phagocytosis assay. It is filed as cell-based, human. The note with it: 20 μM, 5 h treatment. The method, then:
Phagocytosis assay. […] Then, 0.5 μl of pH rodo E. coli-FITC beads (Thermo Fisher, P35366) was added per well with gentle mixing and the cells were incubated for another 4 hours. pHrodo beads only fluoresce when they are internalized in cells. Cells were then collected by scraping, washed with FACS buffer, and counter-stained with Zombie Violet to assess viability. Live cells were analyzed on the FACS Canto instrument for geometric mean fluorescence on the FITC channel. The background FITC fluorescence value (pHrodo beads only) was subtracted from each mean, and fold-change was computed across experimental groups.

The test system of experiment [3] is AKT pS129. The experiment is described as follows: AKT pS129 levels in IL1β-stimulated primary astrocytes. The note with it: IL1-β for 5 h. It is filed as cell-based. The text has this:
AKT pS129 is a known direct CK2 substrate.

For experiment [4], the system named is AKT pS473. The experiment is described as follows: Immunofluorescence of AKT pS473 in IL1β-stimulated primary astrocytes. It is filed as cell-based. To be noted: IL1-β for 5 h. On the procedure:
Immunotluorescence. […] After treatment, cells were fixed with 4% paraformaldehyde solution for 20 min at room temperature and washed 3× with DPBS for 10 min each. The cells were permeabilized using 5% horse serum and 10% Triton X in DPBS for 15 min at room temperature and blocked with 5% horse serum in PBS for 30 min at room temperature. Cells were incubated with primary antibodies in blocking buffer either overnight at 4° C. or for 2 hours at room temperature. After incubation, cells were washed 3× with PBS, blocked using 5% horse serum in PBS for 30 min at room temperature, and incubated with Cy3 red-labeled or AF488 green-labeled secondary antibodies diluted in blocking buffer for 1 hour at room temperature. The cells were washed once with PBS for 10 min, then counter-stained with DAPI. The cells were washed 3× with PBS and mounted with glass coverslips and Immu-Mount solution. Images were obtained with the Zeiss fluorescent microscope. […]

The test system of experiment [5] is LC3-II. Kind of experiment: LC3-II in AD patient-derived induced neurons. It is filed as cell-based, human. The note with it: 24 h. On the procedure:
Western blotting. For drug treatment assays, cells were treated with vehicle (DMSO) or 20 μM compound and stimulated with IL1-B 10 ng/mL for 1 h, 6 h, or 24 h. Cells were dissociated with 1:1 Accutase:papain for 3 min at rt, pelleted for 5 min at 800 g, and washed twice with cold DPBS. Pellets were lysed with RIPA buffer (Sigma R0278) supplemented with Halt protease inhibitor cocktail (Thermo Fisher 78445) and clarified by centrifugation (16,000 g, 10 min, 4° C.). Protein concentration was determined by BCA assay (Thermo Fisher). Proteins were denatured in 1×LDS Buffer and 2.5% beta-mercaptoethanol (X) for 10 min at 70° C., separated on Bolt 4-12% Bis-Tris Plus polyacrylamide gels (Thermo Fisher), transferred to PVDF membranes using the iBlot 2 Dry Blotting System, and blocked with 0.1% casein-PBS (Bio-Rad) for 1 h at room temperature. The blots were incubated with primary antibodies overnight at 4° C. in PBS containing 0.1% casein and 0.2% Tween-20. […] The blots were imaged using the Odyssey CLx imaging system and blots were analyzed on the ImageStudio software (LI-COR).

In experiment [6] the test system is iGluta neurons co-cultured with BD or CT astrocytes. Kind of experiment: Neuronal activity of iGluta neurons co-cultured with pretreated astrocytes. It is filed as cell-based, human. The note with it: BD astrocytes pretreated 5 h with IL1β and 20 μM compound, compared to vehicle. The text has this:
Activity of CT astrocytes is also renormalized (C+vs. D+).

Structures are written as SMILES.

T1 sequence (P68400 whole entry): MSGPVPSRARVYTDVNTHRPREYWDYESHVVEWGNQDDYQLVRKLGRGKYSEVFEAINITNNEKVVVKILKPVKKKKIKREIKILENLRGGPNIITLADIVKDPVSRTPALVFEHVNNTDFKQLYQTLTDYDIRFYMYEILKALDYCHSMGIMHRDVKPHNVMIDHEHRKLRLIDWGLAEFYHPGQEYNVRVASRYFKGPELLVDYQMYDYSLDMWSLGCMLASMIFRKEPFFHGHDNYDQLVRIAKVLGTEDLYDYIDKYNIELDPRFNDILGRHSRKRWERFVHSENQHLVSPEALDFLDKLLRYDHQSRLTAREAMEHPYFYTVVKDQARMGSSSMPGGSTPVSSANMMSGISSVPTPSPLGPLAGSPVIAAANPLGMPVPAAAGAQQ

In the case of `COc1cc(-c2cc(=O)c3c(O)cc(O)cc3o2)ccc1O` [CHR, chrysoeriol], the “inhibition of CK2a1 in vitro (activity class in words)” value in experiment [1] was “active”. Further, in experiment [2], the “microglial phagocytosis of pHrodo E. coli beads” value is given as “blocked”. The “AKT pS129 levels” value in experiment [3] is on record as “reduced”. Also, the “AKT pS473 levels” value in experiment [4] is listed as “reduced”. The “LC3-II (marker of autophagy/mitophagy)” value in experiment [5] is recorded as “increased”. Moreover, the “neuronal activity (mean firing rate)” value in experiment [6] is recorded as “increased”.
